Assay results published in patent US7015218B1, “Amide compounds and medicinal use thereof” (Mitsubishi Pharma Corporation, priority 1999, dated 2006).

System: DBA/1J mouse
Assay: Type II collagen induced arthritis in DBA/1J mouse
Type: in vivo
Procedure: An emulsion was prepared by mixing bovine type II collagen (100–200 μg, purchased from Collagen Gizyutsu Kensyukai) with Freund's complete adjuvant (Sigma) containing dead tubercle bacillus H37Ra was given to 6–7 week-old male DBA/1J mice (Charles River Japan) subcutaneously from the root of the tail for immunization twice at 3 week intervals, thereby developing arthritis. The compound of the present invention or a pharmaceutically acceptable salt thereof was suspended or dissolved in 0.5% hydroxypropylmethylcellulose and orally administered repeatedly at the dose of 0.01–100 mg/kg body weight using an oral sound for 6 weeks from the first immunization. This model was evaluated for the symptoms of arthritis in the four limbs according to the following criteria in 0 to 4 scores. The arthritis score of each mouse was expressed by the total of the scores of the four limbs (maximum:16 points), and when the total score was 1 or more, the onset of arthritis was acknowledged.
The thickness of the four limbs of the mouse was measured with vernier calipers and the total score of the four limbs was used as an index of arthritis. Using a soft X-ray photography (OHMIC co.), the four limbs were X rayed to evaluate the level of destruction of the joints. […]

With `Cc1c(C(=O)Nc2ccc(C(F)(F)F)cc2)cnn1-c1ccc(F)cc1` [1-(4-fluorophenyl)-N-(4-trifluoromethylphenyl)-5-methylpyrazole-4-carboxamide] the “improvement of severity of developed arthritis, swelling of four limbs or joint destruction” value (repeat oral administration at 10 mg/kg body weight) was “did not improve” and the death incidence (repeat oral administration at 30 mg/kg body weight) was “death incidence was confirmed”.
